From ChEMBL document CHEMBL4385620, “Inhibition of polypeptide N-acetyl-α-galactosaminyltransferases is an underlying mechanism of dietary polyphenols preventing colorectal tumorigenesis” (Bioorg Med Chem, 2019)
Activity calls are given as the source filed them. The calls are words filed in the database; no cut-off is given here.

Key:
[1] = biological target: T1, Polypeptide N-acetylgalactosaminyltransferase 2 (Homo sapiens, UniProt Q10471); experiment: Inhibition of ppGalNAcT2 in human HT-29 cells assessed as reduction in O-GalNAc glycans by measuring PNA lectin signal on cell surface at 40 uM incubated for 48 hrs by DAPI staining based immunofluorescence method
T1 sequence (Q10471 whole entry): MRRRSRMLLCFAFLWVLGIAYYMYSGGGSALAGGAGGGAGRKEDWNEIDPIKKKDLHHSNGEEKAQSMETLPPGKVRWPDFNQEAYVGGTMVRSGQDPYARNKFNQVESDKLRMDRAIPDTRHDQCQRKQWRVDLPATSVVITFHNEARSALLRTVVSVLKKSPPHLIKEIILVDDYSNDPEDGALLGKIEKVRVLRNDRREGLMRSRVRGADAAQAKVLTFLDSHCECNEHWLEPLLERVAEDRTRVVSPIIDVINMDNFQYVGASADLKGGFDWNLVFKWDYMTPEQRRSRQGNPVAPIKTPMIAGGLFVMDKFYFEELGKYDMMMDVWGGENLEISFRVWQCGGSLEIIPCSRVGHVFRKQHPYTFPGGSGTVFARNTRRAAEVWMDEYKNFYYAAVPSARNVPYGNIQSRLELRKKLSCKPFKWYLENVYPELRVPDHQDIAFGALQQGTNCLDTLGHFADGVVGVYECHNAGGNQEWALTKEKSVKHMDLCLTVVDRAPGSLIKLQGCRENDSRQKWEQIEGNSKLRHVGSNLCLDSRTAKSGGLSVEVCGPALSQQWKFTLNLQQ

[2] = biological target: T1, Polypeptide N-acetylgalactosaminyltransferase 2; experiment: Inhibition of catalytic activity of human recombinant FLAG-tagged ppGalNAcT2 expressed in HEK293T cells and using 5-FAM labelled-EA2 peptide as substrate incubated for 30 mins by HPLC-based enzyme assay
[3] = biological target: T1, Polypeptide N-acetylgalactosaminyltransferase 2; experiment: Binding affinity of human recombinant FLAG-tagged ppGalNAcT2 expressed in HEK293 cells assessed as dissociation rate by SPR analysis
[4] = biological target: T1, Polypeptide N-acetylgalactosaminyltransferase 2; experiment: Binding affinity of human recombinant FLAG-tagged ppGalNAcT2 expressed in HEK293 cells assessed as dissociation constant by SPR analysis
[5] = species: Homo sapiens; experiment: Ratio of IC50 for IC50 for human recombinant FLAG-tagged ppGalNAcT2 W282A mutant to IC50 for human recombinant FLAG-tagged ppGalNAcT2
[6] = biological target: T1, Polypeptide N-acetylgalactosaminyltransferase 2; experiment: Binding affinity of human recombinant FLAG-tagged ppGalNAcT2 expressed in HEK293 cells assessed as association rate by SPR analysis
[7] = biological target: Polypeptide N-acetylgalactosaminyltransferase 2 (Homo sapiens, UniProt Q10471, W282A); experiment: Inhibition of catalytic activity of human recombinant FLAG-tagged ppGalNAcT2 W282A mutant expressed in HEK293 cells using EA2 peptide as substrate by HPLC-based enzyme assay
Polypeptide N-acetylgalactosaminyltransferase 2 (Homo sapiens, UniProt Q10471, W282A), sequence (Q10471 whole entry W282A): as the sequence (Q10471 whole entry) above, with W282A counted along it

SMILES | inhibition [1] | IC50 [2] [nM] | koff [3] | Kd [4] [nM] | Ratio IC50 [5] | kon [6] [M⁻¹ s⁻¹] | IC50 [7] [nM]
c1cc2ccc3cccc4ccc(c1)c2c34 [PYRENE] | inactive | > 100000 |  |  |  |  | 
O=c1oc2c(O)c(O)cc3c(=O)oc4c(O)c(O)cc1c4c23 [ELLAGIC ACID] | Active | 510 | 8.79 ×10⁻⁴ /s | 371 | 6 | 2367 | 2930
COc1c(O)cc2c(=O)oc3c(OC)c(O)cc4c(=O)oc1c2c34 |  | > 100000 |  |  |  |  | 
O=c1oc2cc(O)ccc2c2ccccc12 |  | > 100000 |  |  |  |  | 
O=C(O)c1cc(O)c(O)c(O)c1 [GALLIC ACID] |  | 1370 | 1.34 ×10⁻³ /s | 924 |  | 1454 | 
